# In ChEMBL document CHEMBL1201862, “PubChem BioAssay data set” (2004):
#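 48-hour exposure; five concentrations; linearly interpolated endpoints. GI50 = concentration required for 50% inhibition of growth.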 Calls of active or inactive are those of the source. Rule as the data show it: active = GI50 up to about 1.1 µM and inactive = higher.
# What was measured:
# Experiment in all cases: inhibition of tumour cell growth, NCI panel, 48 h
# OVCAR-3 = test system: OVCAR-3
# SNB-19 = test system: SNB-19
# OVCAR-5 = test system: OVCAR-5
# 786-0 = test system: 786-0
# OVCAR-4 = test system: OVCAR-4
# KM12 = test system: KM12
# NCI-H460 = test system: NCI-H460
# SF-295 = test system: SF-295
# SK-OV-3 = test system: SK-OV-3
# HT-29 = test system: HT-29
# HOP-62 = test system: HOP-62
# K562 = test system: K562
# ACHN = test system: ACHN
# SK-MEL-2 = test system: SK-MEL-2
# SK-MEL-28 = test system: SK-MEL-28
# NCI/ADR-RES = test system: NCI/ADR-RES
# MCF7 = test system: MCF7
# MDA-MB-435 = test system: MDA-MB-435
SMILES,GI50 (OVCAR-3),GI50 (SNB-19),GI50 (OVCAR-5),GI50 (786-0),GI50 (OVCAR-4),GI50 (KM12),GI50 (NCI-H460),GI50 (SF-295),GI50 (SK-OV-3),GI50 (HT-29),GI50 (HOP-62),GI50 (K562),GI50 (ACHN),GI50 (SK-MEL-2),GI50 (SK-MEL-28),GI50 (NCI/ADR-RES),GI50 (MCF7),GI50 (MDA-MB-435)
N#CC(C#N)=C(C(C#N)C#N)C(C#N)C#N,> 100 µM (inactive),> 100 µM (inactive),> 100 µM (inactive),> 100 µM (inactive),> 100 µM (inactive),> 100 µM (inactive),> 100 µM (inactive),> 100 µM (inactive),> 100 µM (inactive),> 100 µM (inactive),> 100 µM (inactive),> 100 µM (inactive),–,–,–,–,–,–
Cc1nc2cc(Nc3ccccc3C(=O)O)ccc2s1,> 100 µM (inactive),> 100 µM (inactive),> 100 µM (inactive),> 100 µM (inactive),> 100 µM (inactive),> 100 µM (inactive),> 100 µM (inactive),> 100 µM (inactive),> 100 µM (inactive),> 100 µM (inactive),> 100 µM (inactive),> 100 µM (inactive),> 100 µM (inactive),> 100 µM (inactive),> 100 µM (inactive),–,–,–
CCOC(=O)C[C@@]12CCCN[C@]1(C)CCc1ccccc12,> 100 µM (inactive),> 100 µM (inactive),> 100 µM (inactive),> 100 µM (inactive),> 100 µM (inactive),> 100 µM (inactive),> 100 µM (inactive),> 100 µM (inactive),> 100 µM (inactive),> 100 µM (inactive),> 100 µM (inactive),> 100 µM (inactive),> 100 µM (inactive),> 100 µM (inactive),> 100 µM (inactive),–,–,–
CC(=O)CC(=O)Nc1ccccc1C(F)(F)F,–,> 100 µM (inactive),> 100 µM (inactive),> 100 µM (inactive),> 100 µM (inactive),–,> 100 µM (inactive),–,> 100 µM (inactive),–,> 100 µM (inactive),> 100 µM (inactive),> 100 µM (inactive),> 100 µM (inactive),> 100 µM (inactive),–,–,–
CC(C)(C)C1=NN=C2c3ccccc3C(=O)C21 (stereo unspecified),37.6 µM (inactive),91.2 µM (inactive),51.8 µM (inactive),99.5 µM (inactive),38.8 µM (inactive),18.9 µM (inactive),43.9 µM (inactive),39.1 µM (inactive),–,28.2 µM (inactive),> 100 µM (inactive),35.2 µM (inactive),43.1 µM (inactive),39.8 µM (inactive),55.8 µM (inactive),83.9 µM (inactive),51.1 µM (inactive),41.6 µM (inactive)
Cc1ccccc1C(C#N)C(=O)C(=O)Nc1nc([N+](=O)[O-])cs1 (stereo unspecified),> 100 µM (inactive),> 100 µM (inactive),> 100 µM (inactive),> 100 µM (inactive),> 100 µM (inactive),> 100 µM (inactive),> 100 µM (inactive),–,> 100 µM (inactive),> 100 µM (inactive),> 100 µM (inactive),–,> 100 µM (inactive),–,> 100 µM (inactive),–,–,–
FC(F)(F)c1ccccc1/C=N/C12CC3CC(CC(C3)C1)C2,> 100 µM (inactive),0.986 µM (active),> 100 µM (inactive),> 100 µM (inactive),> 100 µM (inactive),> 100 µM (inactive),> 100 µM (inactive),> 100 µM (inactive),> 100 µM (inactive),> 100 µM (inactive),> 100 µM (inactive),> 100 µM (inactive),> 100 µM (inactive),> 100 µM (inactive),> 100 µM (inactive),–,–,–
CS(=O)(=O)c1ccc(-c2cc(-c3ccc(S(C)(=O)=O)cc3)[n+](-c3cc(-c4ccc(S(C)(=O)=O)cc4)c([O-])c(-c4ccc(S(C)(=O)=O)cc4)c3)c(-c3ccc(S(C)(=O)=O)cc3)c2)cc1,> 100 µM (inactive),> 100 µM (inactive),> 100 µM (inactive),> 100 µM (inactive),> 100 µM (inactive),> 100 µM (inactive),> 100 µM (inactive),91.8 µM (inactive),–,> 100 µM (inactive),> 100 µM (inactive),> 100 µM (inactive),> 100 µM (inactive),> 100 µM (inactive),> 100 µM (inactive),–,–,–
C#CCN(N=O)C(=O)ON1C(=O)CCC1=O,> 100 µM (inactive),> 100 µM (inactive),61.8 µM (inactive),> 100 µM (inactive),> 100 µM (inactive),> 100 µM (inactive),> 100 µM (inactive),> 100 µM (inactive),> 100 µM (inactive),> 100 µM (inactive),> 100 µM (inactive),> 100 µM (inactive),> 100 µM (inactive),> 100 µM (inactive),> 100 µM (inactive),–,–,–
